# Experimental data taken from patent US20210163929A1, “METHODS AND COMPOSITIONS FOR THE TREATMENT OF HEPATIC AND METABOLIC DISEASES” (The Regents of the University of California, priority 2018, published 2021).
# Entries after “also recorded” stand apart in the source; their conditions may differ.
# Legend:
# [1] = test system: FGF21 signaling in Huh7 cells; assay: Huh7 cells infected/transfected with miR-22 or miR-22 inhibitors, mRNA and Western blot; assay type: cell-based, human; settings: adenovirus control or miR-22 inhibitors followed by DMSO or OCA 5 μM for 6 h
# Source text: However, miR-22 was induced in the livers and adipose tissues of WD-fed mice (FIG. 15B). Similarly, using human liver biopsy specimens, miR-22 levels were positively associated with hepatic fat content and inversely correlated with the mRNA levels of PGC-1α, a key regulator of mitochondrial biogenesis (FIG. 15C). […] To study the downstream effects of miR-22, miR-22 mimics (ID: MIMAT0000077, […] (SEQ ID NO:2), Applied Biological Materials Inc.) were used to transfect human liver Huh7 cells.
# (§1) Cell culture: Huh7 cells were obtained from Japanese Collection of Research Bioresources and maintained in DMEM with 10% FBS. Cells were treated with DMSO, OCA (5 or 20 μM; Apexbio Technology LLC, Houston, Tex., USA) in serum-free media for indicated time. Cells were plated (1×10^6 cells per 60-mm dish, 2×10^5 cells per 6-well plates, and 1×10^5 cells per 24-well plates) overnight prior to treatment or infection.
# Constructs and luciferase reporter assay: The 3′ untranslated region (3′-UTR) of the FGFR1 gene containing the putative binding site for miR-22 and the entire 3′-UTR of the FGF21 gene (105 bp) was cloned into the psiCHECK2 vector (Promega, Madison, Wis., USA) using NotI and XhoI. For cell infection, adenovirus (negative control), adenoviral-delivered miR-22 (miR-22), or adenoviral-miR-22 inhibitors (SEQ ID NO:1; Applied Biological Materials Inc., Richmond, BC) were used. Forty-eight h post infection, cells were transfected with psiCHECK2-FGR1-3′UTR or psiCHECK2-FGF21 3′UTR using Lipofectamine 2000 (Thermo Fisher Scientific). Twenty-four h later, cells were harvested for firefly and Renilla luciferase assay using the Dual-luciferase Reporter system (Promega). Renilla luciferase activity was standardized to firefly luciferase activity.
# (§2) Western blot: Western blot was performed as described previously (26). Antibodies used were anti-FGFR1, FGF21, FASN, phosphor (P)-AMPK, total (T)-AMPK, phosphor (P)-ERK1/2, and total (T)-ERK1/2 (Cell Signaling Technology, Beverly, Mass., USA), β-ACTIN (MilliporeSigma), CD36 (Bioss Antibodies Inc., Woburn, Mass., USA), CYCLIN A2, PGC1α (Novus Biologicals, LLC, Littleton, Colo., USA), and PPARα (Santa Cruz Biotechnology, Santa Cruz, Calif., USA).
# [2] = test system: patients with NASH and T2DM; settings: cited from earlier work
# miR-22 in HCT116 cells [3] = assay: miR-22 induction in HCT116 cells treated with bile acids or HDAC inhibitors; assay type: cell-based, human
# [4] = test system: FGF21 signaling and miR-22 in Huh7 cells; assay: mRNA and protein levels in Huh7 cells treated with OCA/INT-747, CDCA, butyrate or RA plus butyrate; assay type: cell-based, human; settings: for mRNA and protein levels of FGF21, FGFR1 and PGC1α: OCA 5 or 20 μM
# Protocol: as §1
# Gene expression quantification: Total RNA was extracted using TRIzol Reagent (Thermo Fisher Scientific, Waltham, Mass., USA), and cDNA was generated using High Capacity RNA-to-cDNA Kit (Applied Biosysterms, Carlsbad, Calif., USA). qRT-PCR was performed on ABI 7900HT Fast Real-time PCR system using Power SYBR® Green PCR Master Mix (Applied Biosysterms).
# as §2
# [5] = test system: Western diet-induced obese C57BL/6 male mice; assay: WD-induced obese mice treated with OCA, miR-22 inhibitors or both for 3 weeks; assay type: in vivo, mouse
# Protocol: Mice: C57BL/6 wild-type (WT) male mice (Charles River Laboratories, Inc., Wilmington, Mass., USA) were housed in regular filter-top cages at 22° C. with a 12 h/12 h light/dark cycle. For Western diet (WD)-induced obesity models, mice were fed a WD (21% fat, 34% sucrose, and 0.2% cholesterol, w/w) or control diet (CD 5% fat, 12% sucrose, and 0.01% cholesterol, w/w; Harlan Teklad, Indianapolis, Ind., USA) after weaning (3 weeks). When those mice were 7-months old, WD-fed mice were randomly assigned to […] and received vehicle (0.5% carboxyl methyl cellulose sodium), OCA ([…], daily, oral gavage), miR-22 inhibitors (1×10^9 PFU, tail vein injection, once a week), and the combination of OCA and miR-22 inhibitors for three weeks. For alcohol-induced steatosis models, 3-month-old C57BL/6 male mice were initially fed a control Lieber-DeCarli diet (F1259SP, Bio-Serv, Flemington, N.J., USA) ad libitum for 5 days followed by 5% alcohol supplementation for 21 days (F1258SP, Bio-Serv). Then, those alcohol-fed mice received adenovirus (negative control) or miR-22 inhibitors (1×10^9 PFU, tail vein injection, 3 times in 10 days). All the mice were euthanized 1 day after the last viral injection. Animal experiments were conducted in accordance with the National Institutes of Health Guide for the Care and Use of Laboratory Animals under protocols approved by the Institutional Animal Care and Use Committee of the University of California, Davis.
# Biochemical analysis: Hepatic triglyceride and cholesterol (BioAssay Systems, Hayward, Calif., USA) levels and serum lipopolysaccharide (LPS) (Thermo Fisher Scientific), alanine transaminase (ALT) (Pointe Scientific), and alkaline phosphatase (ALP) (Pointe Scientific) levels were quantified according to the manufacturer's instructions.
# Insulin tolerance test: After 6 h food deprivation, tail vein blood was used to establish fasting blood glucose levels. For insulin tolerance testing, insulin (1 U/kg body weight, i.p.; MilliporeSigma, Burlington, Mass., USA) was given followed by measuring blood glucose level at various times with the OneTouch Ultra 2 (Johnson & Johnson Co., New Brunswick, N.J., USA). The area under the curve (AUC) of the blood glucose levels over time was calculated.
# Serum FGF21 and glucagon-like peptide (GLP-1) secretion assay: Serum FGF21 levels were quantified by ELISA (Boster Biological Technology, Pleasanton, Calif., USA). For GLP-1 secretion assays, mice were unfed for 12 h followed by orally administration of dipeptidyl peptidase-4 inhibitor, sitagliptin ([…]; TSZ Chem, Framingham, Mass., USA) and a liquid diet (Ensure Plus, […]; Ross Laboratories, Columbus, Ohio, USA), which contains 15% protein, 57% carbohydrate, and 28% fat to stimulate GLP-1 secretion, as previously described (25). Blood samples were collected immediately (time 0) as well as 15, and 30 min after Ensure Plus feeding. Serum GLP-1 was quantified by a ELISA kit (RayBiotech Life, Norcross, Ga., USA).
# miR-22 in HCT116 cells [6] = assay: miR-22 induction in HCT116 cells treated with bile acids or HDAC inhibitors; assay type: cell-based, human; remark: listed apart in the source
# Protocol: A time course study in which HCT116 cells were treated by 150 μM CDCA for indicated times. […] Data are presented as mean+/−S.D. * denotes p<0.05.
# Data are shown as mean+/−S.D. * p<0.05; ** p<0.01; ***p<0.001.
# OCA is a semi-synthetic bile acid, which as the structure of 6α-ethyl-chenodeoxycholic acid.
# [7] = test system: hepatic inflammation and fibrosis; settings: 30 mg/kg/day, gavage, every 2 days for 4 weeks; cited from earlier work
# [8] = 1-day treatment, SAHA (5, butyrate 5 mM, propionate 10 mM, valerate 10 mM)
compound,measurement,setting,value
"CC[C@H]1[C@@H](O)[C@@H]2[C@H](CC[C@]3(C)[C@@H]([C@H](C)CCC(=O)O)CC[C@@H]23)[C@@]2(C)CC[C@@H](O)C[C@@H]12 [OCA, obeticholic acid]","FGF21, FGFR1, P-AMPK, and P-ERK1/2 protein levels",[1],"same effects in increasing FGF21, FGFR1, P-AMPK, and P-ERK1/2"
same,patients with fibrosis having ≥1 stage of fibrosis improvement,"[2]; clinical trials, 19% in the placebo group, p<0.05",41%
same,patients reaching the primary endpoint of a ≥2-point improvement in NAFLD activity score without worsening fibrosis,"[2]; clinical trials, 21% in the placebo group, p<0.01",57%
same,insulin sensitivity,[2]; clinical trials,improves insulin sensitivity
same,markers of liver inflammation and fibrosis,[2]; clinical trials,reduced markers of liver inflammation and fibrosis
same,deaths and liver injury,[2]; overdose,caused deaths and liver injury
same,miR-22 level,"miR-22 in HCT116 cells [3]; 24 hours, CDCA 50, 100, 150 μM, OCA 25 and 50 μM",induced miR-22
same,miR-22 level,[4]; 6 h,induced miR-22
same,AMPK and ERK1/2 activation,[4]; 6 hours,activated AMPK and ERK1/2
same,βKlotho protein level,[4]; 6 hours,modestly increased
same,"mRNA and protein levels of FGF21, FGFR1 and PGC1α",[4]; 6 hours,"induced FGF21 signaling by increasing the expression of FGF21, FGF21 receptor (FGFR1), and PGC1α; also recorded: increased mRNA and protein levels of FGF21 and FGFR1 as well as PGC1α"
same,"mRNA and protein levels of FGF21, FGFR1 and PGC1α","[4]; 6 hours, listed as INT-747",markedly increased the mRNA and protein level of FGF21 and FGFR1
same,hepatic fat accumulation (steatosis score),"[5]; WD-fed 7-month-old mice, 3 weeks, OCA 10 mg/g body weight daily oral gavage, miR-22 inhibitors 1×10^9 PFU once a week",reduced hepatic fat accumulation
same,hepatic cholesterol level,"[5]; WD-fed mice, 3 weeks treatment",reduced hepatic cholesterol level
same,hepatic triglyceride levels,"[5]; WD-fed mice, 3 weeks treatment",did not significantly reduce hepatic triglyceride levels
same,release of GLP-1 (serum),"[5]; WD-fed mice, 3 weeks treatment",stimulated the release of GLP-1
same,serum FGF21 level,"[5]; WD-fed mice, 3 weeks treatment",reduced
same,hepatic FASN and CD36,[5]; diet-induced obese mice,reduced FASN and CD36
same,hepatic FGF21 and FGFR1,[5]; diet-induced obese mice,induced hepatic FGF21 and FGFR1
same,"expression of hepatic Pepck, G6pase, and Fbp1",[5]; reduced by WD intake,reversed those reductions
same,CCNA2 expression,miR-22 in HCT116 cells [6],reduced CCNA2
same,FXR target FGF19 expression,miR-22 in HCT116 cells [6],induced FXR target FGF19
same,hepatic inflammation and fibrosis,[7],reduces hepatic inflammation and fibrosis
"O=C(CCCCCCC(=O)Nc1ccccc1)NO [SAHA, suberanilohydroxamic acid]",miR-22 level,miR-22 in HCT116 cells [3]; [8],induced miR-22
CC(=O)O [acetate],miR-22 level,miR-22 in HCT116 cells [3]; [8],not able to induce miR-22
O=CO [formate],miR-22 level,miR-22 in HCT116 cells [3]; [8],not able to induce miR-22
CCC(=O)O [propionate],miR-22 level,miR-22 in HCT116 cells [3]; [8],induced miR-22
CCCCC(=O)O [valerate],miR-22 level,miR-22 in HCT116 cells [3]; [8],induced miR-22
